Results on 21 molecules are retold here after patent US20230077362A1 (CORTEVA AGRISCIENCE LLC, priority 2019, published 2023).

The test system of assay [1] is Cabbage Looper (Trichoplusia ni) ("CL"), second instar larvae. Description: Bioassay on cabbage looper (CL), 128-well diet tray assay. Type of assay: in vivo. As to conditions: for pest or weed control at 50 µg/cm2: Trichoplusia ni, read-out: CL rating. The method, boiled down: (§1)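 Sealed trays, 25° C., 14:10 light:dark, 5–7 d. Per-well % mortality recorded, mean of eight wells reported.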

Assay [2] relates to Beet Armyworm (Spodoptera exigua) ("BAW"), second instar larvae. Description: Bioassay on beet armyworm (BAW), 128-well diet tray assay. Type of assay: in vivo. As to conditions: for pest or weed control at 50 µg/cm2: Spodoptera exigua, read-out: BAW rating. The procedure, abridged:
as §1

Regarding `Cc1ccc(C(C)C)c(N2C(=O)CS/C2=N\C(=O)Nc2ccc(-n3cnc(-c4ccc(OC(F)(F)F)cc4)n3)cc2C)c1` [Compound J466, (Z)-1-(3-(2-Isopropyl-5-methylphenyl)-4-oxothiazolidin-2-ylidene)-3-(2-methyl-4-(3-(4-(trifluoromethoxy)phenyl)-1H-1,2,4-triazol-1-yl)phenyl)urea], the pest or weed control at 50 µg/cm2 in assay [1] and in assay [2] was 50 to 100% throughout.

On to `COC(C)c1ccc(C)cc1N1C(=O)CS/C1=N\C(=O)Nc1ccc(-n2cnc(-c3ccc(OC(F)(F)F)cc3)n2)cc1C` (stereo not drawn) [Compound J467, (Z)-1-(3-(2-(1-Methoxyethyl)-5-methylphenyl)-4-oxothiazolidin-2-ylidene)-3-(2-methyl-4-(3-(4-(trifluoromethoxy)phenyl)-1H-1,2,4-triazol-1-yl)phenyl)urea], for which the pest or weed control at 50 µg/cm2 in assay [1] and in assay [2] was 50 to 100% throughout.

As to `Cc1cc(-n2cnc(-c3ccc(OC(F)(F)F)cc3)n2)ccc1NC(=O)/N=C1\SCC(=O)N1c1cc(N(C)C)ccc1C(F)(F)F` [Compound J468, (Z)-1-(3-(5-(Dimethylamino)-2-(trifluoromethyl)phenyl)-4-oxothiazolidin-2-ylidene)-3-(2-methyl-4-(3-(4-(trifluoromethoxy)phenyl)-1H-1,2,4-triazol-1-yl)phenyl)urea], the pest or weed control at 50 µg/cm2 in assay [1] and in assay [2] was 50 to 100% in each case.

In the case of `Cc1cc(-n2cnc(-c3ccc(OC(F)(F)F)cc3)n2)ccc1NC(=O)/N=C1\SCC(=O)N1c1cc(N(C)C)ccc1C(C)C` [Compound J469, (Z)-1-(3-(5-(Dimethylamino)-2-isopropylphenyl)-4-oxothiazolidin-2-ylidene)-3-(2-methyl-4-(3-(4-(trifluoromethoxy)phenyl)-1H-1,2,4-triazol-1-yl)phenyl)urea], the pest or weed control at 50 µg/cm2 in assay [1] and in assay [2] was 50 to 100% throughout.

As for `Cc1ccc(C(C)C)c(N2C(=O)CS/C2=N\C(=O)Nc2ccc(-c3cn(-c4ccc(OC(F)(F)F)cc4)cn3)cc2F)c1` [Compound J473, (Z)-1-(2-Fluoro-4-(1-(4-(trifluoromethoxy)phenyl)-1H-imidazol-4-yl)phenyl)-3-(3-(2-isopropyl-5-methylphenyl)-4-oxothiazolidin-2-ylidene)urea], the pest or weed control at 50 µg/cm2 in assay [1] and in assay [2] was 50 to 100% each time.

With `CC(C)c1ccc(N(C)C)cc1N1C(=O)CS/C1=N\C(=O)Nc1ccc(-c2cn(-c3ccc(OC(F)(F)F)cc3)cn2)cc1F` [Compound J474, (Z)-1-(3-(5-(Dimethylamino)-2-isopropylphenyl)-4-oxothiazolidin-2-ylidene)-3-(2-fluoro-4-(1-(4-(trifluoromethoxy)phenyl)-1H-imidazol-4-yl)phenyl)urea], the pest or weed control at 50 µg/cm2 in assay [1] and in assay [2] was 50 to 100% in each case.

With `Cc1ccc(OCCC(F)(F)F)c(N2C(=O)CS/C2=N\C(=O)Nc2ccc(-c3cn(-c4ccc(OC(F)(F)F)cc4)cn3)cc2F)c1` [Compound J476, (Z)-1-(2-Fluoro-4-(1-(4-(trifluoromethoxy)phenyl)-1H-imidazol-4-yl)phenyl)-3-(3-(5-methyl-2-(3,3,3-trifluoropropoxy)phenyl)-4-oxothiazolidin-2-ylidene)urea], the pest or weed control at 50 µg/cm2 in assay [1] and in assay [2] was 50 to 100% in each case.

Take `Cc1ccc(C(C)C)c(N2C(=O)CS/C2=N\C(=O)Nc2ccc(-c3cn(-c4ccc(OC(F)(F)F)cc4)cn3)cc2C)c1` [Compound J477, (Z)-1-(3-(2-Isopropyl-5-methylphenyl)-4-oxothiazolidin-2-ylidene)-3-(2-methyl-4-(1-(4-(trifluoromethoxy)phenyl)-1H-imidazol-4-yl)phenyl)urea]: the pest or weed control at 50 µg/cm2 in assay [1] and in assay [2] was 50 to 100% throughout.

As to `CC(C)c1ccc(N(C)C)cc1N1C(=O)CS/C1=N\C(=O)Nc1ccc(-c2cn(-c3ccc(C(F)(F)F)cn3)cn2)cc1F` [Compound J481, (Z)-1-(3-(5-(Dimethylamino)-2-isopropylphenyl)-4-oxothiazolidin-2-ylidene)-3-(2-fluoro-4-(1-(5-(trifluoromethyl)pyridin-2-yl)-1H-imidazol-4-yl)phenyl)urea], the pest or weed control at 50 µg/cm2 in assay [1] and in assay [2] was 50 to 100% each time.

Regarding `Cc1ccc(C(C)C)c(N2C(=O)CS/C2=N\C(=O)Nc2ccc(-c3cn(-c4ccc(C(F)(F)F)cn4)cn3)cc2F)c1` [Compound J482, (Z)-1-(2-Fluoro-4-(1-(5-(trifluoromethyl)pyridin-2-yl)-1H-imidazol-4-yl)phenyl)-3-(3-(2-isopropyl-5-methylphenyl)-4-oxothiazolidin-2-ylidene)urea], the pest or weed control at 50 µg/cm2 in assay [1] and in assay [2] was 50 to 100% throughout.

In the case of `CN(C)c1ccc(C(F)(F)F)c(N2C(=O)CS/C2=N\C(=O)Nc2ccc(-c3cn(-c4ccc(C(F)(F)F)cn4)cn3)cc2F)c1` [Compound J483, (Z)-1-(3-(5-(Dimethylamino)-2-(trifluoromethyl)phenyl)-4-oxothiazolidin-2-ylidene)-3-(2-fluoro-4-(1-(5-(trifluoromethyl)pyridin-2-yl)-1H-imidazol-4-yl)phenyl)urea], the pest or weed control at 50 µg/cm2 in assay [1] and in assay [2] was 50 to 100% in each case.

On to `Cc1ccc(OCCC(F)(F)F)c(N2C(=O)CS/C2=N\C(=O)Nc2ccc(-c3cn(-c4ccc(C(F)(F)F)cn4)cn3)cc2F)c1` [Compound J484, (Z)-1-(2-Fluoro-4-(1-(5-(trifluoromethyl)pyridin-2-yl)-1H-imidazol-4-yl)phenyl)-3-(3-(5-methyl-2-(3,3,3-trifluoropropoxy)phenyl)-4-oxothiazolidin-2-ylidene)urea], for which the pest or weed control at 50 µg/cm2 in assay [1] and in assay [2] was 50 to 100% throughout.

For the molecule `COC(c1ccc(C)cc1N1C(=O)CS/C1=N\C(=O)Nc1ccc(-c2cn(-c3ccc(C(F)(F)F)cn3)cn2)cc1F)C(F)(F)F` (stereo not drawn) [Compound J485, (Z)-1-(2-Fluoro-4-(1-(5-(trifluoromethyl)pyridin-2-yl)-1H-imidazol-4-yl)phenyl)-3-(3-(5-methyl-2-(2,2,2-trifluoro-1-methoxyethyl)phenyl)-4-oxothiazolidin-2-ylidene)urea], the pest or weed control at 50 µg/cm2 in assay [1] and in assay [2] was 50 to 100% throughout.

Turning to `CCOC(C)c1ccc(C)cc1N1C(=O)CS/C1=N\C(=O)Nc1ccc(-c2cn(-c3ccc(OC(F)(F)F)cc3)cn2)cc1C` (stereo not drawn) [Compound J486, (Z)-1-(3-(2-(1-Ethoxyethyl)-5-methylphenyl)-4-oxothiazolidin-2-ylidene)-3-(2-methyl-4-(1-(4-(trifluoromethoxy)phenyl)-1H-imidazol-4-yl)phenyl)urea], the pest or weed control at 50 µg/cm2 in assay [1] and in assay [2] was 50 to 100% throughout.

As for `Cc1ccc(COCC(F)(F)F)c(N2C(=O)CS/C2=N\C(=O)Nc2ccc(-c3cn(-c4ccc(C(F)(F)F)cn4)cn3)cc2F)c1` [Compound J487, (Z)-1-(2-Fluoro-4-(1-(5-(trifluoromethyl)pyridin-2-yl)-1H-imidazol-4-yl)phenyl)-3-(3-(5-methyl-2-((2,2,2-trifluoroethoxy)methyl)phenyl)-4-oxothiazolidin-2-ylidene)urea], the pest or weed control at 50 µg/cm2 in assay [1] and in assay [2] was 50 to 100% throughout.

Turning to `Cc1ccc(-c2ccco2)c(N2C(=O)CS/C2=N\C(=O)Nc2ccc(-c3ncn(-c4ccc(OC(F)(F)F)cc4)n3)cc2C)c1` [Compound J488, (Z)-1-(3-(2-(Furan-2-yl)-5-methylphenyl)-4-oxothiazolidin-2-ylidene)-3-(2-methyl-4-(1-(4-(trifluoromethoxy)phenyl)-1H-1,2,4-triazol-3-yl)phenyl)urea], the pest or weed control at 50 µg/cm2 in assay [1] and in assay [2] was 50 to 100% each time.

For the molecule `Cc1ccc(-c2ccco2)c(N2C(=O)CS/C2=N\C(=O)Nc2ccc(-c3ncn(-c4ccc(OC(F)(F)F)cc4)n3)cc2F)c1` [Compound J489, (Z)-1-(2-Fluoro-4-(1-(4-(trifluoromethoxy)phenyl)-1H-1,2,4-triazol-3-yl)phenyl)-3-(3-(2-(furan-2-yl)-5-methylphenyl)-4-oxothiazolidin-2-ylidene)urea], the pest or weed control at 50 µg/cm2 in assay [1] and in assay [2] was 50 to 100% in each case.

As to `CCOCc1ccc(C)cc1N1C(=O)CS/C1=N\C(=O)Nc1ccc(-c2cn(-c3ccc(OC(F)(F)F)cc3)nn2)cc1` [Compound J493, (Z)-1-(3-(2-(Ethoxymethyl)-5-methylphenyl)-4-oxothiazolidin-2-ylidene)-3-(4-(1-(4-(trifluoromethoxy)phenyl)-1H-1,2,3-triazol-4-yl)phenyl)urea], the pest or weed control at 50 µg/cm2 in assay [1] and in assay [2] was 50 to 100% throughout.

Turning to `COC(c1ccc(C)cc1N1C(=O)CS/C1=N\C(=O)Nc1ccc(-c2cn(-c3ccc(OC(F)(F)F)cc3)nn2)cc1)C(F)(F)F` (stereo not drawn) [Compound J494, (Z)-1-(3-(5-Methyl-2-(2,2,2-trifluoro-1-methoxyethyl)phenyl)-4-oxothiazolidin-2-ylidene)-3-(4-(1-(4-(trifluoromethoxy)phenyl)-1H-1,2,3-triazol-4-yl)phenyl)urea], the pest or weed control at 50 µg/cm2 in assay [1] and in assay [2] was 50 to 100% each time.

On to `COCc1ccc(N(C)C)cc1N1C(=O)CS/C1=N\C(=O)Nc1ccc(-c2cn(-c3ccc(OC(F)(F)F)cc3)nn2)cc1` [Compound J496, (Z)-1-(3-(5-(Dimethylamino)-2-(methoxymethyl)phenyl)-4-oxothiazolidin-2-ylidene)-3-(4-(1-(4-(trifluoromethoxy)phenyl)-1H-1,2,3-triazol-4-yl)phenyl)urea], for which the pest or weed control at 50 µg/cm2 in assay [1] and in assay [2] was 50 to 100% in each case.

For `Cc1cc(COCC(F)(F)F)c(N2C(=O)CS/C2=N\C(=O)Nc2ccc(-c3ncn(-c4ccc(S(F)(F)(F)(F)F)cc4)n3)cc2F)cc1C` [Compound J497], the CL rating result in assay [1] (Table ABC, species CL, C = not tested, D = no activity noticed) is “A (50-100)”. The BAW rating result in assay [2] (Table ABC, species BAW, C = not tested, D = no activity noticed) is “A (50-100)”.
